Test results taken from the supplement of paper PMC10307832.

Tests used:
Assay in all cases: relative viability (nuclei count vs DMSO), 5 days (fraction); higher = more cells survive
[1] = compound: C1=CC=C2C(=C1)N=C(S2)C(C#N)C3=NC(=NC=C3)NCCC4=CN=CC=C4 + O=C(CCCCCCC(=O)Nc1ccccc1)NO [Vorinostat] (partner 1 µM)
In short: (§1)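 Dosing by pin tool came one day after lung cancer cell lines were seeded in 1536-well plates, using either one drug or a fixed anchor-drug dose plus five library-drug doses (not always all listed) in √10 steps. After 5 days, nuclei were counted on 4× images. Relative viability is treated-well nuclei count divided by vehicle-well nuclei count, and values are medians of duplicate plates.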

Vandetanib + Dasatinib = compound: COc1cc2/c(=N/c3ccc(Br)cc3F)nc[nH]c2cc1OCC1CCN(C)CC1 [Vandetanib] + Cc1nc(Nc2ncc(C(=O)Nc3c(C)cccc3Cl)s2)cc(N2CCN(CCO)CC2)n1 [Dasatinib] (partner 0.075 µM)
In short: as §1

CUDC-101 + Vorinostat = compound: C#Cc1cccc(Nc2ncnc3cc(OC)c(OCCCCCCC(=O)NO)cc23)c1 [CUDC-101] + O=C(CCCCCCC(=O)Nc1ccccc1)NO [Vorinostat] (partner 1 µM)
In short: as §1

[2] = compound: C1=CC=C2C(=C1)N=C(S2)C(C#N)C3=NC(=NC=C3)NCCC4=CN=CC=C4 + COc1cccc2cc(-c3nc([C@H]4CC[C@H](C(=O)O)CC4)n4ncnc(N)c34)[nH]c12 [OSI-027] (partner 0.5 µM)
In short: as §1

UMC-11
relative viability ([1]; first compound 0.01581 µM): 0.36 | relative viability ([1]; first compound 0.05 µM): 0.402 | relative viability ([1]; first compound 0.1581 µM): 0.42 | relative viability ([1]; first compound 0.5 µM): 0.422 | relative viability (Vandetanib + Dasatinib; first compound 0.02 µM): 0.442 | relative viability (Vandetanib + Dasatinib; first compound 0.06325 µM): 0.422 | relative viability (Vandetanib + Dasatinib; first compound 0.2 µM): 0.43 | relative viability (Vandetanib + Dasatinib; first compound 0.6325 µM): 0.497 | relative viability (Vandetanib + Dasatinib; first compound 2 µM): 0.462 | relative viability (CUDC-101 + Vorinostat; first compound 0.01 µM): 0.359 | relative viability (CUDC-101 + Vorinostat; first compound 0.03162 µM): 0.317 | relative viability (CUDC-101 + Vorinostat; first compound 0.1 µM): 0.32 | relative viability (CUDC-101 + Vorinostat; first compound 0.3162 µM): 0.129 | relative viability (CUDC-101 + Vorinostat; first compound 1 µM): 0.0877 | relative viability ([2]; first compound 0.005 µM): 0.408 | relative viability ([2]; first compound 0.01581 µM): 0.493 | relative viability ([2]; first compound 0.05 µM): 0.445 | relative viability ([2]; first compound 0.1581 µM): 0.468 | relative viability ([2]; first compound 0.5 µM): 0.35
